The results in this text go back to US20190160021A1, “Substituted Stilbenes as Inhibitors of NF-kappaB and Activators of Nrf2” (STC.UNM, priority 2017, published 2019).

In one data set the test system is Nrf2. The experiment in a line: Nrf2-ARE reporter-HepG2 stable cell line luciferase reporter assay for activators of Nrf2. The settings on record: Nrf2-ARE reporter-HepG2 cells, from dose-response curves; read-out: EC50, concentration that produced 50% activation of Nrf2. The class given is cell-based. The procedure: A Nrf2-ARE reporter-HepG2 stable cell line (BPS Bioscience, San Diego, Calif.) is grown in a humidified atmosphere at 37° C. in 5% CO295% air. The cells are maintained in MEM medium with Earles balanced salts and L-glutamine supplemented with 10% fetal bovine serum (FBS), 1 mM sodium pyruvate, 1% non-essential amino acids, 100 units/ml penicillin, 100 μg/ml streptomycin, and 400 μg/ml Geneticin. One day prior to treatment, the Nrf2-ARE cells are plated into 24-well cell culture plates at approximately 30% confluency in the above media without Geneticin. The following day, fresh media with or without substituted trans stilbene or sulforaphane is applied to the cells. DMSO concentrations are kept at 0.1%. The cells are again placed in a humidified atmosphere at 37° C. in 5% CO2/95% air for 5 hours. Plate wells are gently washed with phosphate buffered saline (PBS) pH 7.4 and lysed with 1× passive lysis buffer (Promega, Madison, Wis., USA). The subsequent lysates are analyzed with the Luciferase Assay System (Promega) utilizing a GloMax 20/20 luminometer (Promega, Sunnyvale, Calif., USA). The firefly luciferase relative light units are normalized to protein (mg/ml) with BCATM Protein Assay Kit protein (Pierce, Rockford, Ill., USA)
On the technique in general: A reporter such as luciferase makes a cellular process visible.
`Oc1ccc(C=Cc2cc(O)cc(O)c2)cc1` [Resveratrol, resveratrol]: the EC50 was found to be 5.4 µM.

For `C[S+]([O-])CCCCN=C=S` (centres unmarked) [sulforaphane], the EC50 came to 1.2 µM.

The data set is the same for the next values; noted with them: Nrf2-ARE reporter-HepG2 cells, screened at 15 μM.
With `COc1cccc(/C=C/c2ccc(C(F)(F)F)cc2)c1OC` [trans stilbene 54, (E)-1,2-Dimethoxy-3-(4-(trifluoromethyl)styryl)benzene], the “fold activation (extent of activation) of Nrf2” value is listed as 65.5 fold.

Test system in another data set: not given
Assay: not given
Conditions: not given
As for `COc1ccccc1/C=C/c1ccccc1F` [trans stilbene 10, (E)-1-Fluoro-2-(2-methoxystyryl)benzene], the melting point – broadly, the temperature, or range, at which the solid turns liquid – was in the range of 34 to 35 °C.

Regarding `COc1cccc(/C=C/c2ccc(F)cc2)c1OC` [trans stilbene 17, (E)-1-(4-Fluorostyryl)-2,3-dimethoxybenzene], the melting point lay within 50 to 51 °C.

Turning to `COc1ccc(OC)c(/C=C/c2ccc(F)cc2)c1` [trans stilbene 18, (E)-2-(4-Fluorostyryl)-1,4-dimethoxybenzene], the melting point is 58 to 59 °C.

`Cc1ccc(/C=C/c2ccc(F)c(F)c2)cc1` [trans stilbene 22, (E)-1,2-Difluoro-4-(4-methylstyryl)benzene] displayed a melting point of 90 to 92 °C.

Turning to `COc1ccc(/C=C/c2cc(F)ccc2F)cc1` [trans stilbene 23, (E)-1,4-Difluoro-2-(4-methoxystyryl)benzene], the melting point was 109 to 110 °C.

Regarding `Fc1ccc(/C=C/c2ccccc2F)cc1F` [trans stilbene 24, (E)-1,2-Difluoro-4-(2-fluorostyryl)benzene], the melting point was 85 to 86 °C.

As for `COc1ccc(/C=C/c2ccc(F)c(F)c2)cc1` [trans stilbene 26, (E)-1,2-Difluoro-4-(4-methoxystyryl)benzene], the melting point fell in the range of 73 to 74 °C.

`Fc1cccc(/C=C/c2ccc(F)c(F)c2)c1` [trans stilbene 30, (E)-1,2-Difluoro-4-(3-fluorostyryl)benzene]: the melting point is 48 to 49 °C.

`Fc1cccc(/C=C/c2cc(F)ccc2F)c1` [trans stilbene 34, (E)-1,4-Difluoro-2-(3-fluorostyryl)benzene] gave a melting point of 73 to 74 °C.

`Fc1cccc(/C=C/c2ccc(F)cc2F)c1` [trans stilbene 35, (E)-2,4-Difluoro-1-(3-fluorostyryl)benzene] gave a melting point of 60 to 61 °C.

For the molecule `Fc1ccc(/C=C/c2ccccc2F)c(F)c1` [trans stilbene 36, (E)-2,4-Difluoro-1-(2-fluorostyryl)benzene], the melting point lay within 84 to 85 °C.

`Cc1ccc(/C=C/c2ccc(F)cc2F)cc1` [trans stilbene 37, (E)-2,4-Difluoro-1-(4-methylstyryl)benzene] came in with a melting point of 72 to 73 °C.

Molecule `Fc1ccc(/C=C/c2cc(F)ccc2F)cc1` [trans stilbene 40, (E)-1,4-Difluoro-2-(4-fluorostyryl)benzene] displayed a melting point of 76 to 77 °C.

In turn, `COc1cccc(/C=C/c2ccc(C)cc2)c1OC` [trans stilbene 48, (E)-1,2-Dimethoxy-3-(4-methylstyryl)benzene] displayed a melting point of 38 to 40 °C.

As for `COc1cccc(/C=C/c2ccccc2OC)c1` [trans stilbene 49, (E)-1-Methoxy-2-(3-methoxystyryl)benzene], the melting point was 49 to 50 °C.

In the case of `COc1cccc(/C=C/c2cc(OC)ccc2OC)c1` [trans stilbene 50, (E)-1,4-Dimethoxy-2-(3-methoxystyryl)benzene], the melting point fell in the range of 48 to 49 °C.

Molecule `COc1cccc(/C=C/c2ccc(C(F)(F)F)cc2)c1OC` [trans stilbene 54, (E)-1,2-Dimethoxy-3-(4-(trifluoromethyl)styryl)benzene] displayed a melting point of 67 to 69 °C.
